Experimental data from patent US20220175675A1, “ENCAPSULATING MOLECULES IN FAT GLOBULES” (The Regents of the University of California, priority 2019, published 2022).
Marks after values point to notes of the source that are not given here.

How the values were obtained:
[1] = Encapsulation of hydrophobic compounds into milk fat globules (loading capacity, encapsulation efficiency); format: physicochemical, bovine; conditions: for maximal loading capacity (LC): maximal value over 50-2500 μM; for encapsulation efficiency (EE %), maximal/overall value: over tested concentrations
Description: Raw milk was procured from a local market and stored at 4° C. Milk was used for up to 4 days post purchase. MFGs were separated from raw milk using centrifugal separation following a modified version of the method by Gallier et al. (2010) (12). First, raw milk was diluted with Milli-Q water at 9:1 water to milk, and the solution was centrifuged at 3,000×g for 5 min using a fixed angle centrifuge rotor. Cream was then skimmed off the sides of the centrifuged tubes after discarding the aqueous phase. In order to remove more of the milk serum components, cream was reconstituted in water to reach 4% w/v, and subjected to another step of centrifugation at 3,000×g for 5 min Cream was collected as detailed prior, then reconstituted to 20% w/v in Milli-Q water. All separation steps were completed at room temperature.
Encapsulation of test compounds in MFGs was accomplished by mixing ethanolic stock solution of a compound with 20% w/v cream suspended in water. The mixture was gently inverted several times to mix, then allowed in incubate in the dark.
To test the effect of incubation temperature on the partitioning and encapsulation yield and efficiency, RA was added at 250 μM concentration and was allowed to incubate with MFGs for 30 min at 4, 22, and 40° C.
To quantify the amount of compound encapsulated in MFGs, cream was separated from ethanol-containing aqueous phase via centrifugal separation at 3,000 x g for 5 min. Cream was skimmed and added to methanol at 50 mg/mL and vortexed vigorously for 1 min, then centrifuged at 16,000×g for 10 min. Top layer of methanol was collected and absorbance was measured at appropriate wavelength for each compound. An absorbance blank was prepared following the same encapsulation and separation steps in the absence of compound. λmax in methanol (nm) for each compound is reported in Table 1.
Cream (20% w/v in Milli-Q water) that was separated following the steps in Example 2 was further separated via centrifugation at 3,000×g for 5 min. Fat content in cream was measured using a modified Folch method (13). An additional washing step was incorporated where the chloroform/water interface was washed with 1:1 water/methanol solution.

[2] = Measured or estimated, from references; cited from earlier work
[3] = Encapsulation of hydrophobic compounds into milk fat globules (loading capacity, encapsulation efficiency); format: physicochemical, bovine; conditions: 250 μM, 1% v/v ethanol, room temperature
[4] = Water/octanol partitioning coefficient, Log P
[5] = 150 μM added compound, 10% v/v ethanol, 30 min, room temperature
[6] = 200 μM added compound, 10% v/v ethanol, 30 min, room temperature
[7] = 250 μM added compound, 10% v/v ethanol, 30 min, room temperature
[8] = 500 μM added compound, 10% v/v ethanol, 30 min, room temperature
[9] = 1000 μM added compound, 10% v/v ethanol, 30 min, room temperature
[10] = 1500 μM added compound, 10% v/v ethanol, 30 min, room temperature
[11] = 2000 μM added compound, 10% v/v ethanol, 30 min, room temperature
[12] = 2500 μM added compound, 10% v/v ethanol, 30 min, room temperature
[13] = 10% v/v ethanol, 30 min, room temperature
[14] = 1% v/v ethanol, 250 μM, 30 min, room temperature
[15] = 2% v/v ethanol, 250 μM, 30 min, room temperature
[16] = 4% v/v ethanol, 250 μM, 30 min, room temperature
[17] = 4 °C, 30 min, 250 μM, 1% v/v ethanol
[18] = 6% v/v ethanol, 250 μM, 30 min, room temperature
[19] = 8% v/v ethanol, 250 μM, 30 min, room temperature
[20] = 10% v/v ethanol, 250 μM, 30 min, room temperature
[21] = 22 °C, 30 min, 250 μM, 1% v/v ethanol
[22] = 40 °C, 30 min, 250 μM, 1% v/v ethanol
[23] = 40 °C, 30 min, 250 μM, 1% v/v ethanol, listed as RA
[24] = 30 min incubation, 250 μM, 1% v/v ethanol, room temperature

C=CCc1ccc(O)c(OC)c1 [Eugenol]
% Encapsulation efficiency [1, 5]: 98.05 ± 4.10%
% Encapsulation efficiency [1, 6]: 95.43 ± 7.46%
% Encapsulation efficiency [1, 7]: 86.64 ± 7.23%
% Encapsulation efficiency [1, 8]: 85.14 ± 6.33%
% Encapsulation efficiency [1, 9]: 80.94 ± 2.42 %
% Encapsulation efficiency [1, 10]: 82.09 ± 134 %
% Encapsulation efficiency [1, 11]: 80.86 ± 2.58 %
% Encapsulation efficiency [1, 12]: 80.71 ± 3.39 %
maximal loading capacity (LC) [1, 13]: 39.65 μg per gram of milk fat
encapsulation efficiency (EE %), maximal/overall value ([1]; 10% v/v ethanol, 30 min): approximately 98%
logP (physchem): ~2.6
Water/octanol partitioning coefficient, Log P [2]: 2.61-2.66 ^(18)

CC(=O)OC/C=C(C)/C=C/C=C(C)/C=C/C1=C(C)CCCC1(C)C [Retinyl acetate]
% Encapsulation efficiency ([1]; 50 μM added compound, 10% v/v ethanol, 30 min, room temperature): 107.46 ± 6.29%
% Encapsulation efficiency ([1]; 100 μM added compound, 10% v/v ethanol, 30 min, room temperature): 100.56 ± 3.83%
% Encapsulation efficiency [1, 5]: 111.73 ± 6.32%
% Encapsulation efficiency [1, 6]: 110.33 ± 3.15%
% Encapsulation efficiency [1, 7]: 105.92 ± 4.41%
% Encapsulation efficiency [1, 8]: 76.40 ± 9.65 %
% Encapsulation efficiency [1, 9]: 86.09 ± 12.48 %
% Encapsulation efficiency [1, 10]: 82.14 ± 15.94 %
% Encapsulation efficiency [1, 11]: 76.89 ± 9.88 %
% Encapsulation efficiency [1, 12]: 75.45 ± 5.19 %
% Encapsulation efficiency [1, 14]: 77.86 ± 5.54^ %
Loading capacity [1, 14]: 7.65 ± 0.54^ μg retinyl acetate/g of milk f
Loading capacity ([1]; 1% v/v ethanol, 250 μM, 30 min, room temperature, listed as RA): 7.6 μg retinyl acetate/g of milk f
EE % range with increased ethanol concentration ([1]; 1 to 10% v/v ethanol, 250 μM, 30 min): 78-107%
% Encapsulation efficiency [1, 15]: 83.40 ± 11.73%
Loading capacity [1, 15]: 8.20 ± 1.15^ μg retinyl acetate/g of milk f
% Encapsulation efficiency [1, 16]: 101.24 ± 4.76 %
Loading capacity [1, 16]: 9.95 ± 0.47 μg retinyl acetate/g of milk f
% Encapsulation efficiency [1, 17]: 53.52 ± 3.97 ^a %
Loading capacity [1, 17]: 5.26 ± 0.39 ^a μg retinyl acetate/g of milk f
% Encapsulation efficiency [1, 18]: 106.90 ± 10.93 %
Loading capacity [1, 18]: 10.51 ± 1.07 μg retinyl acetate/g of milk f
% Encapsulation efficiency [1, 19]: 107.65 ± 6.42 %
Loading capacity [1, 19]: 10.58 ± 0.63 μg retinyl acetate/g of milk f
% Encapsulation efficiency [1, 20]: 107.53 ± 5.15 %
Loading capacity [1, 20]: 10.57 ± 0.51 μg retinyl acetate/g of milk f
Loading capacity ([1]; 10% v/v ethanol, 250 μM, 30 min, room temperature, listed as RA): 10.57 μg retinyl acetate/g of milk f
% Encapsulation efficiency [1, 21]: 72.07 ± 3.85 ^b %
Loading capacity [1, 21]: 7.08 ± 0.38 ^b μg retinyl acetate/g of milk f
% Encapsulation efficiency [1, 22]: 124.42 ± 6.52 ^c %
Loading capacity [1, 22]: 12.23 ± 0.64 ^c μg retinyl acetate/g of milk f
% Encapsulation efficiency [1, 23]: 124.42%
Loading capacity [1, 23]: 12.23 μg retinyl acetate/g of milk f
% Encapsulation efficiency ([1]; 10 min incubation, 250 μM, 1% v/v ethanol, room temperature): 52.02 ± 4.66^ %
% Encapsulation efficiency ([1]; 20 min incubation, 250 μM, 1% v/v ethanol, room temperature): 65.66 ± 6.40 %
% Encapsulation efficiency [1, 24]: 76.11 ± 0.89 %
Loading capacity [1, 24]: 7.48 ± 0.09 μg retinyl acetate/g of milk f
% Encapsulation efficiency ([1]; 40 min incubation, 250 μM, 1% v/v ethanol, room temperature): 78.98 ± 5.13 %
Loading capacity ([1]; 50 min incubation, 250 μM, 1% v/v ethanol, room temperature): 8.78 ± 0.46 μg retinyl acetate/g of milk f
% Encapsulation efficiency ([1]; 60 min incubation, 250 μM, 1% v/v ethanol, room temperature): 94.38 ± 2.25 *†‡¥ %
maximal loading capacity (LC) [1, 13]: 74.15 μg per gram of milk fat
encapsulation efficiency (EE %), maximal/overall value ([1]; 10% v/v ethanol, 30 min): ≥ 100%
Loading capacity ([3]; 10 min incubation): 5.11 ± 0.46^ μg retinyl acetate/g of milk f
Loading capacity ([3]; 20 min incubation): 6.45 ± 0.63 μg retinyl acetate/g of milk f
Loading capacity ([3]; 40 min incubation): 7.76 ± 0.50 μg retinyl acetate/g of milk f
% Encapsulation efficiency ([3]; 50 min incubation): 89.38 ± 4.66 %
Loading capacity ([3]; 60 min incubation): 9.28 ± 0.22 *†‡¥ μg retinyl acetate/g of milk f
Loading capacity ([3]; 60 min incubation, listed as RA): 9.28 μg retinyl acetate/g of milk f
Water/octanol partitioning coefficient, Log P [2]: 6.3-9.81 ^(21, 23)
logP [4]: ~8
